Assay results reported in ChEMBL document CHEMBL4840320, “Taccachatrones A-G, Highly Oxidized Steroids from the Rhizomes of Tacca chantrierii and Their Cytotoxicity Assessment” (J Nat Prod, 2021).
pIC50: −log10 of the molar value. Activity calls are given as the source filed them. No cut-off for these calls is given here.

Legend:
Format in all cases: functional, cell-based
HL-60 = assay: Cytotoxicity against human HL-60 cells assessed as reduction in cell viability measured after 48 hrs by MTT assay; details: for pIC50: HL-60, 48 h
A549 = assay: Cytotoxicity against human A549 cells assessed as reduction in cell viability measured after 48 hrs by MTT assay; details: for pIC50: A549, 48 h
MCF7 = assay: Cytotoxicity against human MCF7 cells assessed as reduction in cell viability measured after 48 hrs by MTT assay; details: for pIC50: MCF7, 48 h
SW480 = assay: Cytotoxicity against human SW480 cells assessed as reduction in cell viability measured after 48 hrs by MTT assay; details: for pIC50: SW480, 48 h

| Structure (SMILES) | pIC50 (HL-60) | pIC50 (A549) | pIC50 (MCF7) | pIC50 (SW480) | Activity (HL-60) | Activity (A549) | Activity (MCF7) | Activity (SW480) |
| --- | --- | --- | --- | --- | --- | --- | --- | --- |
| CC(=O)O[C@H]1C[C@H]2[C@H]([C@@H]3[C@@H](O)[C@@H]4[C@H]([C@H](C)C=C5OC(=O)C(C)(O)[C@@]54C)[C@]31C)[C@@H](O)C(=O)[C@H]1C[C@@H]3O[C@H]3[C@H](OC(=O)CC(C)C)[C@@]12C (stereo partly specified) | 5.80 | 5.55 | 5.16 | < 5.00 | – | – | – | – |
| CC(=O)O[C@@H]1[C@H]2[C@@H]3[C@@H](OC(C)=O)C(=O)[C@@]4(O)C[C@@H]5O[C@H]5[C@H](OC(=O)CC(C)C)[C@]4(C)[C@H]3C[C@H](OC(C)=O)[C@]2(C)[C@@H]2[C@@H]1[C@]1(C)C(=C[C@H]2C)OC(=O)C1(C)O (stereo partly specified) | < 5.00 | 5.08 | < 5.00 | < 5.00 | – | – | – | – |
| CC(=O)O[C@H]1[C@H]2[C@H]([C@@H]3[C@@H](O)C4=C(C)C(=O)[C@@H](O)[C@@H](C)[C@@H]4[C@@]3(C)[C@H]1OC(C)=O)[C@@H](O)C(=O)[C@H]1C[C@@H]3O[C@@H]3[C@H](OC(C)=O)[C@]21C | – | – | – | – | inactive | inactive | inactive | inactive |
| CC(=O)O[C@H]1C[C@H]2[C@@H]([C@@H]3O[C@@H]3[C@@]3(O)C[C@@H]4O[C@@H]4[C@H](OC(C)=O)[C@]23C)[C@@H]2C[C@H]3[C@H](CO)CC(=O)[C@@H](C)[C@@H]3[C@@]12C | – | – | – | – | inactive | inactive | inactive | inactive |
| CC(=O)O[C@H]1C[C@H]2[C@@H](C(=O)[C@H](O)[C@@]3(O)C[C@@H]4O[C@@H]4[C@H](OC(C)=O)[C@]23C)[C@@H]2C(=O)[C@H]3[C@H](C)[C@@H](O)C[C@@H](C)[C@@H]3[C@@]12C | – | – | – | – | inactive | inactive | inactive | inactive |
| CC(=O)O[C@H]1[C@H]2[C@H]([C@@H]3[C@H]4OC(C)(O)[C@]5(C)[C@H]4[C@H]([C@H](C)C(=O)[C@H]5O)[C@@]3(C)[C@H]1OC(C)=O)[C@@H](OC(C)=O)C(=O)[C@H]1C[C@@H]3O[C@H]3[C@H](OC(C)=O)[C@]21C (stereo partly specified) | < 5.00 | 5.12 | < 5.00 | < 5.00 | – | – | – | – |
| CC(=O)O[C@H]1C[C@H]2[C@@H](C(=O)[C@H](O)[C@@]3(O)C[C@@H]4O[C@@H]4[C@H](OC(C)=O)[C@]23C)[C@@H]2[C@H](O)[C@@H]3[C@H]([C@H](C)CC(=O)[C@H]3C)[C@]21C | – | – | – | – | inactive | inactive | inactive | inactive |
| CC(=O)O[C@@H]1[C@H]2[C@H]3[C@H]([C@H](O)[C@H](OC(C)=O)[C@]2(C)[C@H]2[C@H](C)[C@H](OC(C)=O)[C@@H]4OC(=O)C(C)(O)[C@]4(C)[C@H]12)[C@]1(C)[C@H](C[C@@H]2O[C@H]2[C@@H]1OC(C)=O)C(=O)[C@@H]3O (stereo partly specified) | < 5.00 | 5.14 | < 5.00 | < 5.00 | – | – | – | – |
| CC(=O)O[C@H]1C(=O)[C@@]2(C)[C@H]([C@H](OC(=O)c3ccccc3)[C@]3(O)C[C@H](OC(=O)[C@H](O)[C@@H](NC(=O)c4ccccc4)c4ccccc4)C(C)=C1C3(C)C)[C@]1(OC(C)=O)CO[C@@H]1C[C@@H]2O [PACLITAXEL] | > 8.10 | > 8.10 | > 8.10 | > 8.10 | – | – | – | – |
